pEC50: −log10 of the molar value.
System: HBV
Experiment: HBV replication inhibition assay (BDNA assay) in HepG2.2.15 cells
Assay type: cell-based
Conditions: HBV replication assay (BDNA assay), HepG2.2.15 cells; read-out: DNA EC50
In short: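 HepG2.2.15 cells with stably integrated HBV were treated with serially diluted compounds at 0.5% DMSO for 6 days, with medium and compound refreshed at day 3. Encapsidated HBV DNA from DNase-treated supernatant was quantified by branched DNA assay. EC50 came from % inhibition versus DMSO, fitted non-linearly.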

Structure (SMILES)	pEC50
CNC(=O)C1Cn2nc3c(c2C(=O)N(C)O1)CN(C(=O)Nc1cc(Cl)c(F)cc1F)[C@H](C)C3 (stereo in doubt) [Compound 111_D1, (4S*,9R)—N10-(5-chloro-2,4-difluorophenyl)-N4,2,9-trimethyl-1-oxo-1,4,5,8,9,11-hexahydropyrido[4′,3′:3,4]pyrazolo[5,1-d][1,2,5]oxadiazepine-4,10(2H)-dicarboxamide]	< 6.00
CNC(=O)C1Cn2nc3c(c2C(=O)N(C)O1)CN(C(=O)Nc1cc(Cl)c(F)cc1F)[C@H](C)C3 (stereo in doubt) [Compound 111_D2, (4R*,9R)—N10-(5-chloro-2,4-difluorophenyl)-N4,2,9-trimethyl-1-oxo-1,4,5,8,9,11-hexahydropyrido[4′,3′:3,4]pyrazolo[5,1-d][1,2,5]oxadiazepine-4,10(2H)-dicarboxamide]	7.00 to 9.00
CNC(=O)C1Cn2nc3c(c2C(=O)N(C)O1)CN(C(=O)Nc1ccc(F)c(C#N)c1)[C@H](C)C3 (stereo in doubt) [Compound 112_D1, (4S*,9R)—N10-(3-cyano-4-fluorophenyl)-N4,2,9-trimethyl-1-oxo-1,4,5,8,9,11-hexahydropyrido[4′,3′:3,4]pyrazolo[5,1-d][1,2,5]oxadiazepine-4,10(2H)-dicarboxamide]	< 6.00
CNC(=O)C1Cn2nc3c(c2C(=O)N(C)O1)CN(C(=O)Nc1ccc(F)c(C#N)c1)[C@H](C)C3 (stereo in doubt) [Compound 112_D2, (4R*,9R)—N10-(3-cyano-4-fluorophenyl)-N4,2,9-trimethyl-1-oxo-1,4,5,8,9,11-hexahydropyrido[4′,3′:3,4]pyrazolo[5,1-d][1,2,5]oxadiazepine-4,10(2H)-dicarboxamide]	7.00 to 9.00

Same assay, conditions: Hepatitis B virus, HepG2.2.15, HBV replication assay (BDNA assay), HepG2.2.15 cells; read-out: DNA EC50

Structure (SMILES)	pEC50
CC[C@H]1Cc2nn3c(c2CN1C(=O)Nc1ccc(F)c(Cl)c1)C(=O)N(C)O[C@H](CO)C3 (stereo in doubt) [Compound 109_D1, (4S*,9S*)—N-(3-chloro-4-fluorophenyl)-9-ethyl-4-(hydroxymethyl)-2-methyl-1-oxo-1,4,5,8,9,11-hexahydropyrido[4′,3′:3,4]pyrazolo[5,1-d][1,2,5]oxadiazepine-10(2H)-carboxamide]	6.30 to 7.00
CC[C@@H]1Cc2nn3c(c2CN1C(=O)Nc1ccc(F)c(Cl)c1)C(=O)N(C)O[C@H](CO)C3 (stereo in doubt) [Compound 109_D2, (4S*,9R*)—N-(3-chloro-4-fluorophenyl)-9-ethyl-4-(hydroxymethyl)-2-methyl-1-oxo-1,4,5,8,9,11-hexahydropyrido[4′,3′:3,4]pyrazolo[5,1-d][1,2,5]oxadiazepine-10(2H)-carboxamide]	6.30 to 7.00
CC[C@@H]1Cc2nn3c(c2CN1C(=O)Nc1ccc(F)c(Cl)c1)C(=O)N(C)O[C@@H](CO)C3 (stereo in doubt) [Compound 109_D3, (4R*,9R*)—N-(3-chloro-4-fluorophenyl)-9-ethyl-4-(hydroxymethyl)-2-methyl-1-oxo-1,4,5,8,9,11-hexahydropyrido[4′,3′:3,4]pyrazolo[5,1-d][1,2,5]oxadiazepine-10(2H)-carboxamide]	6.00 to 6.30
CC[C@H]1Cc2nn3c(c2CN1C(=O)Nc1ccc(F)c(Cl)c1)C(=O)N(C)O[C@@H](CO)C3 (stereo in doubt) [Compound 109_D4, (4R*,9S*)—N-(3-chloro-4-fluorophenyl)-9-ethyl-4-(hydroxymethyl)-2-methyl-1-oxo-1,4,5,8,9,11-hexahydropyrido[4′,3′:3,4]pyrazolo[5,1-d][1,2,5]oxadiazepine-10(2H)-carboxamide]	6.30 to 7.00
CN1O[C@H](CN)Cn2nc3c(c2C1=O)CN(C(=O)Nc1ccc(F)c(C#N)c1)CC3 (stereo in doubt) [Compound 114_E1, (S*)-4-(aminomethyl)-N-(3-cyano-4-fluoro-phenyl)-2-methyl-1-oxo-5,8,9,11-tetrahydro-4H-pyrido[2,3]pyrazolo[2,4-d][1,2,5]oxadiazepine-10-carboxamide]	7.00 to 9.00

Source: patent publication US10987359B2, “Oxadiazepinone derivatives and methods of treating hepatitis B infections” (priority 2016, dated 2021)
